Results from patent US20100261711A1, “SELECTIVE ANTICONVULSANT AGENTS AND THEIR USES” (WiSys Technology Foundation, priority 2009, published 2010).
Values joined by “and” are separate entries in the source; they are usually repeats but may differ in a detail not shown here. Equal values may be shown once.

Assays:
[1] = molecular target: T1, GABAA/α1 (α1β3γ2 GABAA receptors) (Homo sapiens, UniProt P14867+P18507); assay: Competitive binding assay, [3H]flunitrazepam; settings: Binding Affinity at GABAA/α1, αxβ3γ2, [3H]flunitrazepam competition
T1 construct: expressed in transfected cells
Method: (§1) The GABAA subunit selectivity of several compounds prepared as described above were determined using competitive binding assays. […] Membranes were harvested with a Brandel cell harvester followed by three ice-cold washes onto polyethyleneimine-pretreated (0.3%) Whatman GF/C filters. Filters were dried overnight and then soaked in Ecoscint, a liquid scintillation cocktail (National Diagnostics; Atlanta, Ga.). Bound radioactivity was quantified by liquid scintillation counting. Membrane protein concentrations were determined using an assay kit from Bio-Rad (Hercules, Calif.) with bovine serum albumin as the standard.

[2] = molecular target: T2, GABAA/α2 (α2β3γ2 GABAA receptors) (Homo sapiens, UniProt P18507+P47869); assay: Competitive binding assay, [3H]flunitrazepam; settings: Binding Affinity at GABAA/α2, αxβ3γ2, [3H]flunitrazepam competition
T2 construct: expressed in transfected cells
Method: as §1

[3] = molecular target: T3, GABAA/α3 (α3β3γ2 GABAA receptors) (Homo sapiens, UniProt P18507+P34903); assay: Competitive binding assay, [3H]flunitrazepam; settings: Binding Affinity at GABAA/α3, αxβ3γ2, [3H]flunitrazepam competition
T3 construct: expressed in transfected cells
Method: as §1

[4] = molecular target: T4, GABAA/α5 (α5β3γ2 GABAA receptors) (Homo sapiens, UniProt P18507+P31644); assay: Competitive binding assay, [3H]flunitrazepam; settings: Binding Affinity at GABAA/α5, αxβ3γ2, [3H]flunitrazepam competition
T4 construct: expressed in transfected cells
Method: as §1

[5] = Plasma levels by LC-MS/MS (tolerance study); assay type: in vivo, Sprague Dawley rats
Method: Immediately after testing, blood was collected via cardiac puncture. Samples were spun down, plasma was collected and acetonitrile added. Samples were frozen at −80° C. and shipped to a commercial laboratory (Enthalpy) for analysis.
Group 3 (8 subjects) was dosed with vehicle only.

[6] = molecular target: T5, GABAA/α6 (α6β3γ2 GABAA receptors) (Homo sapiens, UniProt P18507+Q16445); assay: Competitive binding assay, [3H]flunitrazepam
T5 construct: expressed in transfected cells
Method: as §1

[7] = system: 6 Hz psychomotor seizure; assay: Minimal clonic seizure (6 Hz) test; assay type: in vivo; settings: Mice IP, 44 mA, 0.5 Hr
Text: Like the maximal electroshock (MES) test, the minimal clonic seizure (6 Hz) test is used to assess a compound's efficacy against electrically-induced seizures but uses a lower frequency (6 Hz) and longer duration of stimulation (3 s). Test compounds are pre-administered to mice via ip injection. […] Untreated mice will display seizures characterized by a minimal clonic phase followed by stereotyped, automatistic behaviors described originally as being similar to the aura of human subjects with partial seizures. Animals not displaying this behavior are considered protected (Table 10).

[8] = system: minimal muscular or neurological impairment; assay: Toxicity (TOX), rotorod procedure, mice; assay type: in vivo
Method: (§2) The benzodiazepine derivative compounds selective for GABAa receptor subunits were tested for the ability to suppress seizures in several standard rat and mouse models of epilepsy. […] The standard models incorporated into anticonvulsant screening include the maximal electroshock test (MES), the subcutaneous Metrazol test (scMet), and evaluations of toxicity (TOX). The data for each condition is presented as a ratio of either the number of animals protected or toxic (loss of locomotor activity) over the number of animals tested at a given time point and dose.
(§3) To assess a compound's undesirable side effects (toxicity), animals are monitored for overt signs of impaired neurological or muscular function. […] When a mouse is placed on a rod that rotates at a speed of 6 rpm, the animal can maintain its equilibrium for long periods of time. The animal is considered toxic if it falls off this rotating rod three times during a 1-min period. In rats, minimal motor deficit is indicated by ataxia, which is manifested by an abnormal, uncoordinated gait. Rats used for evaluating toxicity are examined before the test drug is administered, since individual animals may have peculiarities in gait, equilibrium, placing response, etc., which might be attributed erroneously to the test substance.

[9] = system: Metrazol-induced clonic seizures; assay: Subcutaneous Metrazol test (scMet), rats; assay type: in vivo
Method: as §2
(§4) Subcutaneous injection of the convulsant Metrazol produces clonic seizures in laboratory animals. […] Animals are pretreated with various doses of the test compound (in a similar manner to the MES test, although a dose of 50 mg/kg (po) is the standard for Test 2 scMet). At the previously determined TPE of the test compound, the dose of Metrazol which will induce convulsions in 97% of animals (CD97: 85 mg/kg mice) is injected into a loose fold of skin in the midline of the neck. […] An episode of clonic spasms, approximately 3-5 seconds, of the fore and/or hindlimbs, jaws, or vibrissae is taken as the endpoint.

[10] = system: minimal motor deficit (ataxia, abnormal gait); assay: Toxicity (TOX), minimal motor deficit, rats; assay type: in vivo; settings: for Tox, animals toxic/tested: Rat PO, 50 mg/kg; for TOX (Rotorod Test), animals toxic/tested: Rat IP, 100 mg/kg
Method: as §2, §3

[11] = system: MES-induced seizures; assay: Maximal electroshock test (MES), rats; assay type: in vivo; settings: Rat PO, 50 mg/kg
Method: as §2
(§5) The MES is a model for generalized tonic-clonic seizures and provides an indication of a compound's ability to prevent seizure spread when all neuronal circuits in the brain are maximally active. These seizures are highly reproducible and are electrophysiologically consistent with human seizures. For all tests based on MES convulsions, 60 Hz of alternating current (50 mA in mice, 150 in rats) is delivered for by corneal electrodes which have been primed with an electrolyte solution containing an anesthetic agent (0.5% tetracaine HCL). For Test 1, mice are tested at various intervals following doses of 30, 100 and 300 mg/kg of test compound given by ip injection of a volume of 0.01 mL/g. In Test 2, rats are tested after a dose of 30 mg/kg (po) in a volume of 0.04 mL/g. Test 8 uses varying doses administered via i.p. injection, again in a volume of 0.04 ml/g. […] In Antiepileptic Drugs, Levy, R. H. M., Meldrum, B. S., Eds.; Raven Press: New York, pp 99-110, 1995b.).

[12] = system: MES-induced seizures; assay: Maximal electroshock test (MES), mice; assay type: in vivo; settings: Mice IP
Method: as §2, §5

[13] = system: Metrazol-induced clonic seizures; assay: Subcutaneous Metrazol test (scMet), mice; assay type: in vivo
Method: as §2, §4

[14] = Mice, 50 mg/kg PO (Mice IP), 0.5 hr
[15] = Mice, 50 mg/kg PO (Mice IP), 4.0 hr

O=C(OCC(F)(F)F)c1ncn2c1CN=C(c1ccccc1)c1cc(Br)ccc1-2
melting point: 202 to 204 °C

O=C(OCC(Cl)(Cl)Cl)c1ncn2c1CN=C(c1ccccc1)c1cc(Br)ccc1-2
melting point: 113 to 116 °C

C[Si](C)(C)C#Cc1ccc2c(c1)C(c1ccccc1)=NCc1c(C(=O)OCC(F)(F)F)ncn1-2
melting point: 107 to 110 °C

C#Cc1ccc2c(c1)C(c1ccccc1)=NCc1c(C(=O)OCC(F)(F)F)ncn1-2 [DM-II-20, Trifluoroethyl 8-acetylenyl-6-phenyl-4H-benzo[f]imidazo[1,5-a][1,4]diaze-pine-3-carboxylate]
Ki [1]: 5720 nM | Ki [2]: 177 nM | Ki [3]: 35.7 nM | Ki [4]: 198 nM | melting point: 188 to 190 °C

C#Cc1ccc2c(c1)C(c1ccccn1)=NCc1c(C(=O)O)ncn1-2 [HZ-166 acid]
HZ-166 acid, plasma average with outliers excluded ([5]; Group 1 (five days dosing of HZ-166)): 9.03 nmol/mL | Conc HZ-166 acid in plasma, individual subjects ([5]; Group 1: HZ-166 35.5 mg/kg ip for five days, blood after test on day 5): 2910 ng/mL and 2570 ng/mL and 3430 ng/mL and 2830 ng/mL and BLQ < (1.00) ng/mL and 3780 ng/mL and 3310 ng/mL and 1900 ng/mL | HZ-166 acid, plasma average with outliers excluded ([5]; Group 2 (HZ-166 on day 5 only)): 8.72 nmol/mL | Conc HZ-166 acid in plasma, individual subjects ([5]; Group 2: HZ-166 35.5 mg/kg ip on day 5 only): 3270 ng/mL and 2180 ng/mL and 167 ng/mL and 3120 ng/mL and 3100 ng/mL and 3690 ng/mL and 2590 ng/mL and 2080 ng/mL

O=C(OCC(F)(F)F)c1ncn2c1CN=C(c1ccccc1F)c1cc(Br)ccc1-2 [JYI-49, Trifluoroethyl-8-bromo-6-(2′-fluorophenyl)-4H-benzo[f]imidazo[1,5-a][1,4]diazepine-3-carboxylate]
Ki [6]: 3390 nM | Ki [1]: 1.87 nM | Ki [2]: 2.38 nM | Ki [4]: 6.7 nM

C#Cc1ccc2c(c1)C(c1ccccc1)=N[C@@H](C)c1nnc(C)n1-2 [SH-TS-CH3 (143), (4S)-8-Ethynyl-1,4-dimethyl-6-phenyl-4H-benzo[f][1,2,4]triazolo[4,3-a][1,4]diazepine]
6 Hz ED50 Biological Response, protected/tested ([7]; 3 mg/kg): 4/8 | 6 Hz ED50 Biological Response, protected/tested ([7]; 6 mg/kg): 5/8 | 6 Hz ED50 Biological Response, protected/tested ([7]; 10 mg/kg): 8/8 | ED50 ([7]; Mus musculus, ip, 0.5 h, read-out: ED50 (6 Hz)): 3.98 mg/kg | TOX (Rotorod Test), animals toxic/tested ([8]; Mice IP, 3 mg/kg, 0.5 Hr): 0/8 | TOX (Rotorod Test), animals toxic/tested ([8]; Mice IP, 10 mg/kg, 0.5 Hr): 5/8^14 | TOX (Rotorod Test), animals toxic/tested ([8]; Mice IP, 30 mg/kg, 0.5 Hr): 4/4^14 | TOX (Rotorod Test), animals toxic/tested ([8]; Mice IP, 30 mg/kg, 4.0 Hr): 0/2 | TOX (Rotorod Test), animals toxic/tested ([8]; Mice IP, 100 mg/kg, 0.5 hr): 8/8^14 | TOX (Rotorod Test), animals toxic/tested ([8]; Mice IP, 100 mg/kg, 4.0 hr): 0/4 | TOX (Rotorod Test), animals toxic/tested ([8]; Mice IP, 300 mg/kg, 0.5 Hr): 4/4^13 | TOX (Rotorod Test), animals toxic/tested ([8]; Mice IP, 300 mg/kg, 4.0 Hr): 2/2^14 | scMet, animals protected/tested ([9]; Rat PO, 50 mg/kg, 0.5 h): 1/4 | scMet, animals protected/tested ([9]; Rat PO, 50 mg/kg, 1.0 h): 0/4^5 | scMet, animals protected/tested ([9]; Rat PO, 50 mg/kg, 2.0 h): 2/4^25 | scMet, animals protected/tested ([9]; Rat PO, 50 mg/kg, 4.0 h): 0/4^5 | scMet, animals protected/tested ([9]; Rat PO, 50 mg/kg, […]): 0/4^5 | Tox, animals toxic/tested ([10]; 0.5 h): 0/4 | Tox, animals toxic/tested ([10]; 1.0 h): 0/4 | Tox, animals toxic/tested ([10]; 2.0 h): 0/4 | Tox, animals toxic/tested ([10]; 4.0 h): 0/4 | Tox, animals toxic/tested ([10]; […]): 0/4 | MES, animals protected/tested ([11]; 0.5 h): 0/4 | MES, animals protected/tested ([11]; 1.0 h): 0/4 | MES, animals protected/tested ([11]; 2.0 h): 0/4 | MES, animals protected/tested ([11]; 4.0 h): 0/4 | MES, animals protected/tested ([11]; […]): 0/4 | Ki [1]: 107 nM | Ki [2]: 50.1 nM | Ki [4]: 8.1 nM | MES, animals protected/tested ([12]; 3 mg/kg, 0.5 Hr): 0/4 | MES, animals protected/tested ([12]; 10 mg/kg, 0.5 Hr): 0/4 | MES, animals protected/tested ([12]; 30 mg/kg, 0.5 Hr): 1/1 | MES, animals protected/tested ([12]; 30 mg/kg, 4.0 Hr): 0/1 | MES, animals protected/tested ([12]; 100 mg/kg, 0.5 hr): 3/3 | MES, animals protected/tested ([12]; 100 mg/kg, 4.0 hr): 0/3 | MES, animals protected/tested ([12]; 300 mg/kg, 0.5 Hr): 1/1 | MES, animals protected/tested ([12]; 300 mg/kg, 4.0 Hr): 1/1 | scMet, animals protected/tested ([13]; Mice IP, 3 mg/kg, 0.5 Hr): 2/4 | scMet, animals protected/tested ([13]; Mice IP, 10 mg/kg, 0.5 Hr): 4/4 | scMet, animals protected/tested ([13]; Mice IP, 30 mg/kg, 0.5 Hr): 1/1 | scMet, animals protected/tested ([13]; Mice IP, 30 mg/kg, 4.0 Hr): 0/1 | scMet, animals protected/tested ([13]; Mice IP, 100 mg/kg, 0.5 hr): 1/1 | scMet, animals protected/tested ([13]; Mice IP, 100 mg/kg, 4.0 hr): 1/1 | scMet, animals protected/tested ([13]; Mice IP, 300 mg/kg, 0.5 Hr): 1/1 | scMet, animals protected/tested ([13]; Mice IP, 300 mg/kg, 4.0 Hr): 1/1

C#Cc1ccc2c(c1)C(c1ccccc1)=NCc1c(C(=O)OCC)ncn1-2 [XHe-II-053 (7), Ethyl 8-acetylenyl-6-phenyl-4H-benzo[f]imidazo[1,5-a][1,4]diazepine-3-carboxylate]
TOX (Rotorod Test), animals toxic/tested ([8]; Mice IP, 100 mg/kg, 0.5 hr): 0/8 | TOX (Rotorod Test), animals toxic/tested ([8]; Mice IP, 100 mg/kg, 4.0 hr): 0/4 | TOX (Rotorod Test), animals toxic/tested [8, 14]: 2/4 | TOX (Rotorod Test), animals toxic/tested [8, 15]: 0/4 | scMet, animals protected/tested ([9]; Rat IP, 100 mg/kg, 0.5 hr): 1/4 | scMet, animals protected/tested ([9]; Rat IP, 100 mg/kg, 4.0 hr): 0/4 | TOX (Rotorod Test), animals toxic/tested ([10]; 0.5 hr): 2/4 | TOX (Rotorod Test), animals toxic/tested ([10]; 4.0 hr): 0/4 | MES, animals protected/tested ([12]; 100 mg/kg, 0.5 hr): 0/3 | MES, animals protected/tested ([12]; 100 mg/kg, 4.0 hr): 0/3 | scMet, animals protected/tested ([13]; Mice IP, 100 mg/kg, 0.5 hr): 0/1 | scMet, animals protected/tested ([13]; Mice IP, 100 mg/kg, 4.0 hr): 0/1 | scMet, animals protected/tested [13, 14]: 1/4 | scMet, animals protected/tested [13, 15]: 0/4
